Assay results as given in US20260034123A1 (Cedilla Therapeutics, Inc., priority 2022, published 2026).

Columns and labels:
CDK2/Cyclin E1 = CDK2/Cyclin E1 (Homo sapiens, UniProt P24941); assay: ADP-Glo Luminescent Kinase Assay (CDK2/E1-37C); format: biochemical; conditions: 0.18 nM CDK2/Cyclin E1, 100 μM ATP, Histone H1, 37° C.; read-out: ADPGLO (CDK2/E1-37C): IC50
Procedure, shortened: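 IC50 fitted by four-parameter equation from ADP-Glo luminescence converted to % activity. Compounds were preincubated 60 min at 37 °C with enzyme, then kinase reaction ran 90 min at 37 °C with 0.18 nM enzyme, 100 μM ATP, Histone H1 ([…]), pH 7.5 HEPES, Mg2+, DTT.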

Kuramochi cells RB-WT = assay: IncuCyte Kuramochi cell proliferation assay, RB-WT; format: cell-based; conditions: 72 hours, cell count
Procedure, shortened: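 GI50 was derived by curve-fitting DMSO-normalized fold change in nuclear count between 0 and 72 h. Counts came from images of Kuramochi cells carrying mApple-H2B. Compounds were dosed over 10 points at 1/2-log spacing from a 20 µM top concentration.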

Kuramochi cells RB-KO = assay: IncuCyte Kuramochi cell proliferation assay, RB-KO; format: cell-based; conditions: 72 hours, cell count, batch mean
Method: IncuCyte® assay was used to measure the effect of disclosed compounds on cell proliferation. Fluorescent microscopy images of cells were taken immediately after compound treatment and 72 hours later. Image analysis software was used to obtain cell counts as a function of compound concentration. Kuramochi cells labeled with mApple-H2B were seeded on 384-well assay-ready plates. Plates were placed in an IncuCyte® (Sartorius) and scanned at 0 and 72 hours. IncuCyte® software was used to count the number of fluorescent nuclei in each well. The fold change in cell count from 0 to 72 hours in wells treated with increasing compounds concentrations (10 pts, 1/2 log dilution, 20 µM top concentration) was normalized to DMSO control wells. The normalized cell counts were fit with dose response curves and a GI50 was calculated.

SMILES | IC50 (CDK2/Cyclin E1) | IC50 (Kuramochi cells RB-WT) | IC50 (Kuramochi cells RB-KO)
CC(C)(C(=O)N1CC2(CN(C(=O)c3cnn(Cc4ccc(F)cc4)c3)C[C@H]2COCc2cccc(C3CCC(C(F)(F)F)CC3)c2CC(=O)O)C1)C(F)(F)F (stereo partly drawn) [I′-23, (S)-2-(2-(((6-(1-(4-fluorobenzyl)-1H-pyrazole-4-carbonyl)-2-(3,3,3-trifluoro-2,2-dimethylpropanoyl)-2,6-diazaspiro[3.4]octan-8-yl)methoxy)methyl)-6-(4-(trifluoromethyl)cyclohexyl)phenyl)acetic acid] | ≤ 0.5 µM | ≤ 0.5 µM | > 10 µM
CC(C)(C(=O)N1CC2(CN(C(=O)c3cnn(Cc4ccc(F)cc4)c3)C[C@H]2COCc2cccc(C3CCC(F)(F)CC3)c2-c2nn[nH]n2)C1)C(F)(F)F [I′-24] | ≤ 0.5 µM | 0.5 to 5 µM | > 10 µM
CC1(C)C[C@@H]1C(=O)N1CC2(CN(C(=O)c3cnn(Cc4ccc(F)cc4)c3)C[C@H]2COCc2cccc(C3CCC(F)(F)CC3)c2C(=O)NCCN2CCOCC2)C1 [I′-25, 2-(4,4-difluorocyclohexyl)-6-((((S)-2-((S)-2,2-dimethylcyclopropane-1-carbonyl)-6-(1-(4-fluorobenzyl)-1H-pyrazole-4-carbonyl)-2,6-diazaspiro[3.4]octan-8-yl)methoxy)methyl)-N-(2-morpholinoethyl)benzamide] | ≤ 0.5 µM | > 10 µM | > 10 µM
CC(C)(C(=O)N1CC2(CN(C(=O)c3cnn(Cc4ccc(F)cc4)c3)C[C@H]2COCc2cccc(-c3csc(C(F)(F)F)c3)c2C(=O)O)C1)C(F)(F)F [I′-26, (S)-2-(((6-(1-(4-fluorobenzyl)-1H-pyrazole-4-carbonyl)-2-(3,3,3-trifluoro-2,2-dimethylpropanoyl)-2,6-diazaspiro[3.4]octan-8-yl)methoxy)methyl)-6-(5-(trifluoromethyl)thiophen-3-yl)benzoic acid] | ≤ 0.5 µM | ≤ 0.5 µM | > 10 µM
CC(C)(C(=O)N1CC2(CN(C(=O)c3cnn(Cc4ccc(F)cc4)c3)C[C@H]2COCc2cccc(-c3cccc(C(F)(F)F)c3)c2C(=O)O)C1)C(F)(F)F [I′-27, (S)-3-(((6-(1-(4-fluorobenzyl)-1H-pyrazole-4-carbonyl)-2-(3,3,3-trifluoro-2,2-dimethylpropanoyl)-2,6-diazaspiro[3.4]octan-8-yl)methoxy)methyl)-3′-(trifluoromethyl)-[1,1′-biphenyl]-2-carboxylic acid] | ≤ 0.5 µM | 5 to 10 µM | > 10 µM
CC(C)(C(=O)N1CC2(CN(C(=O)c3cnn(Cc4ccc(F)cc4)c3)C[C@H]2COCc2cccc(-c3cccc(F)c3)c2C(=O)O)C1)C(F)(F)F [I′-28] | ≤ 0.5 µM | 5 to 10 µM | > 10 µM
O=C(O)c1c(CCC2CN(C(=O)c3cnn(Cc4ccc(F)cc4)c3)CC23CN(C(=O)C2(C(F)(F)F)CC2)C3)cccc1C1CCC(F)(F)CC1 (stereo not drawn) [I′-29] | ≤ 0.5 µM | > 10 µM | > 10 µM
CC(C)(C(=O)N1CC2(CN(C(=O)c3cnn(Cc4ccc(F)cc4)c3)C[C@H]2COCc2cccc(C3CCC(F)(F)CC3)c2C(=O)OCCN2CCOCC2)C1)C(F)(F)F [I′-31] | ≤ 0.5 µM | 0.5 to 5 µM | 5 to 10 µM
O=C(O)c1c(OCCC2CN(C(=O)c3cnn(Cc4ccc(F)cc4)c3)CC23CN(C(=O)C2(C(F)(F)F)CC2)C3)cccc1C1CCC(F)(F)CC1 (stereo not drawn) [I′-32, 2-(4,4-difluorocyclohexyl)-6-(2-(6-(1-(4-fluorobenzyl)-1H-pyrazole-4-carbonyl)-2-(1-(trifluoromethyl)cyclopropane-1-carbonyl)-2,6-diazaspiro[3.4]octan-8-yl)ethoxy)benzoic acid] | ≤ 0.5 µM | ≤ 0.5 µM | 5 to 10 µM
NC(=O)c1c(COC[C@@H]2CN(c3cc(F)c(F)c4ncsc34)CC23CN(C(=O)C2(C(F)(F)F)CC2)C3)cccc1C1CCC(F)(F)CC1 [I′-33, 2-(((6-(4,5-difluorobenzo[d]thiazol-7-yl)-2-(1-(trifluoromethyl)cyclopropane-1-carbonyl)-2,6-diazaspiro[3.4]octan-8-yl)methoxy)methyl)-6-(4,4-difluorocyclohexyl)benzamide] | ≤ 0.5 µM | > 10 µM | > 10 µM
O=C(O)c1c(COC[C@@H]2CN(c3cc(F)c(F)c4ncsc34)CC23CN(C(=O)C2(C(F)(F)F)CC2)C3)cccc1C1CCC(C(F)(F)F)CC1 (stereo partly drawn) [I′-34, (S)-2-(((6-(4,5-difluorobenzo[d]thiazol-7-yl)-2-(1-(trifluoromethyl)cyclopropane-1-carbonyl)-2,6-diazaspiro[3.4]octan-8-yl)methoxy)methyl)-6-(4-(trifluoromethyl)cyclohexyl)benzoicacid] | ≤ 0.5 µM | ≤ 0.5 µM | > 10 µM
CC(C)(C(=O)N1CC2(CN(C(=O)c3cnn(Cc4ccc(F)cc4)c3)C[C@H]2COCc2cccc(C3CCC(F)(F)CC3)c2C#N)C1)C(F)(F)F [I′-35] | ≤ 0.5 µM | 0.5 to 5 µM | > 10 µM
CC1(C)C[C@@H]1C(=O)N1CC2(CN(C(=O)c3cnn(Cc4ccc(F)cc4)c3)C[C@H]2COCc2cccc(C3CCC(F)(F)CC3)c2C(=O)OCCN2CCOCC2)C1 [I′-36, 2-morpholinoethyl 2-(4,4-difluorocyclohexyl)-6-((((S)-2-((S)-2,2-dimethylcyclopropane-1-carbonyl)-6-(1-(4-fluorobenzyl)-1H-pyrazole-4-carbonyl)-2,6-diazaspiro[3.4]octan-8-yl)methoxy)methyl)benzoate] | ≤ 0.5 µM | ≤ 0.5 µM | 0.5 to 5 µM
CC(C)(C(=O)N1CC2(CN(C(=O)c3cnn(Cc4ccc(F)cc4)c3)C[C@H]2COCc2cccc(C3=CCC(F)(F)CC3)c2C(=O)O)C1)C(F)(F)F [I′-37] | ≤ 0.5 µM | ≤ 0.5 µM | > 10 µM
CC(C)(C(=O)N1CC2(CN(C(=O)c3cnn(Cc4ccc(F)cc4)c3)C[C@H]2COCc2cccc(-c3ccc(F)cc3)c2C(=O)O)C1)C(F)(F)F [I′-38] | ≤ 0.5 µM | 5 to 10 µM | > 10 µM
CC(C)(C(=O)N1CC2(CN(C(=O)c3cnn(Cc4ccc(F)cc4)c3)C[C@H]2COCc2cccc(-c3ccccc3)c2)C1)C(F)(F)F [I′-39] | 0.5 to 5 µM | > 10 µM | > 10 µM
CC(C)(C(=O)N1CC2(CN(C(=O)c3cnn(Cc4ccc(F)cc4)c3)C[C@H]2COCc2cccc(-c3ccccc3C(=O)O)c2)C1)C(F)(F)F [I′-40] | 0.5 to 5 µM | 0.5 to 5 µM | 5 to 10 µM
Cc1cc(N2C[C@@H](COCc3cccc(C4CCC(F)(F)CC4)c3C(=O)O)C3(CN(C(=O)C4(C(F)(F)F)CC4)C3)C2)c2scnc2c1C [I′-41] | > 10 µM | 5 to 10 µM | > 10 µM
CC1(C)C[C@@H]1C(=O)N1CC2(CN(C(=O)c3cnn(Cc4ccc(F)cc4)c3)C[C@H]2COCc2cccc(C3CCC(F)(F)CC3)c2C#N)C1 [I′-42, 2-(4,4-difluorocyclohexyl)-6-((((S)-2-((S)-2,2-dimethylcyclopropane-1-carbonyl)-6-(1-(4-fluorobenzyl)-1H-pyrazole-4-carbonyl)-2,6-diazaspiro[3.4]octan-8-yl)methoxy)methyl)benzonitrile] | ≤ 0.5 µM | 0.5 to 5 µM | 0.5 to 5 µM
